{
  "source": "patent US9221746B2",
  "about": "“Homo- and hetero-polyamino-acid derivatives of fullerene C60, method for producing same, and pharmaceutical compositions based on said derivatives” (priority 2011, dated 2015)",
  "key": {"[1]": {"test_system": "A/Aichi/2/69 (H3N2) influenza virus", "test": "Induced influenza pneumonia in mice"}, "[2]": {"test_system": "human lymphoblastoid cells", "test": "Cytotoxicity in human lymphoblastoid cells model", "format": "cell-based"}, "[3]": {"details": "LD90, intramuscularly 50 mg/kg/day"}, "[4]": {"details": "LD90, intramuscularly 100 mg/kg/day"}, "[5]": {"details": "LD90, intramuscularly 200 mg/kg/day"}, "[6]": {"details": "LD90, intraperitoneally 50 mg/kg/day"}, "[7]": {"details": "LD90, intraperitoneally 100 mg/kg/day"}},
  "data": [
    {"substance": "Fullerene Poly(Aminocaproic Acid) of Formula C60(H3){NH(CH2)5COO—}3{NH3^+(CH2)5COOH}3 [Agent No. 1]", "values": [
      {"measurement": "Percent body weight change in days post infection", "setting": "[1]; LD70, intraperitoneally 100 mg/kg/day, day 9", "result": "+25%"},
      {"measurement": "Percent body weight change in days post infection", "setting": "[1]; LD70, intraperitoneally 100 mg/kg/day, day 11", "result": "+33%"},
      {"measurement": "Percent body weight change in days post infection", "setting": "[1]; LD70, intraperitoneally 100 mg/kg/day, day 13", "result": "+41%"},
      {"measurement": "Percent death protection (%)", "setting": "[1]; LD70, intraperitoneally 200 mg/kg/day", "result": 0, "unit": "%"},
      {"measurement": "Percent body weight change in days post infection", "setting": "[1]; LD70, intraperitoneally 200 mg/kg/day, day 1", "result": "+7%"},
      {"measurement": "Percent body weight change in days post infection", "setting": "[1]; LD70, intraperitoneally 200 mg/kg/day, day 2", "result": "+6%"},
      {"measurement": "Percent body weight change in days post infection", "setting": "[1]; LD70, intraperitoneally 200 mg/kg/day, day 3", "result": "+5%"},
      {"measurement": "Percent body weight change in days post infection", "setting": "[1]; LD70, intraperitoneally 200 mg/kg/day, day 4", "result": "−4", "unit": "%"},
      {"measurement": "Percent body weight change in days post infection", "setting": "[1]; LD70, intraperitoneally 200 mg/kg/day, day 5", "result": "−3", "unit": "%"},
      {"measurement": "Percent body weight change in days post infection", "setting": "[1]; LD70, intraperitoneally 200 mg/kg/day, day 7", "result": "−7", "unit": "%"},
      {"measurement": "Percent body weight change in days post infection", "setting": "[1]; LD70, intraperitoneally 200 mg/kg/day, day 9", "result": "+4%"},
      {"measurement": "Percent body weight change in days post infection", "setting": "[1]; LD70, intraperitoneally 200 mg/kg/day, day 11", "result": "+6%"},
      {"measurement": "Percent body weight change in days post infection", "setting": "[1]; LD70, intraperitoneally 200 mg/kg/day, day 13", "result": "+15%"},
      {"measurement": "Average lifetime (days)", "setting": "[1]; LD70, orally 100 mg/kg/day", "result": "13.1 (1-8 d., 1-10 d., 1-11 d.) days"},
      {"measurement": "Percent death protection (%)", "setting": "[1]; LD70, orally 100 mg/kg/day", "result": 40, "unit": "%"},
      {"measurement": "Percent body weight change in days post infection", "setting": "[1]; LD70, orally 100 mg/kg/day, day 1", "result": "+19%"},
      {"measurement": "Percent body weight change in days post infection", "setting": "[1]; LD70, orally 100 mg/kg/day, day 2", "result": "+23%"},
      {"measurement": "Percent body weight change in days post infection", "setting": "[1]; LD70, orally 100 mg/kg/day, day 3", "result": "+25%"},
      {"measurement": "Percent body weight change in days post infection", "setting": "[1]; LD70, orally 100 mg/kg/day, day 4", "result": "+22%"},
      {"measurement": "Percent body weight change in days post infection", "setting": "[1]; LD70, orally 100 mg/kg/day, day 5", "result": "+16%"},
      {"measurement": "Percent body weight change in days post infection", "setting": "[1]; LD70, orally 100 mg/kg/day, day 7", "result": "+17%"},
      {"measurement": "Percent body weight change in days post infection", "setting": "[1]; LD70, orally 100 mg/kg/day, day 9", "result": "+24%"},
      {"measurement": "Percent body weight change in days post infection", "setting": "[1]; LD70, orally 100 mg/kg/day, day 11", "result": "+43%"},
      {"measurement": "Percent body weight change in days post infection", "setting": "[1]; LD70, orally 100 mg/kg/day, day 13", "result": "+51%"},
      {"measurement": "Percent death protection (%)", "setting": "[1]; LD70, orally 200 mg/kg/day", "result": 70, "unit": "%"},
      {"measurement": "average lifetime", "setting": "[1]; LD70, orally 200 mg/kg/day", "result": ">16", "unit": "days"},
      {"measurement": "Percent body weight change in days post infection", "setting": "[1]; LD70, orally 200 mg/kg/day, day 1", "result": "+26%"},
      {"measurement": "Percent body weight change in days post infection", "setting": "[1]; LD70, orally 200 mg/kg/day, day 2", "result": "+31%"},
      {"measurement": "Percent body weight change in days post infection", "setting": "[1]; LD70, orally 200 mg/kg/day, day 3", "result": "+36%"},
      {"measurement": "Percent body weight change in days post infection", "setting": "[1]; LD70, orally 200 mg/kg/day, day 4", "result": "+36%"},
      {"measurement": "Percent body weight change in days post infection", "setting": "[1]; LD70, orally 200 mg/kg/day, day 5", "result": "+36%"},
      {"measurement": "Percent body weight change in days post infection", "setting": "[1]; LD70, orally 200 mg/kg/day, day 7", "result": "+38%"},
      {"measurement": "Percent body weight change in days post infection", "setting": "[1]; LD70, orally 200 mg/kg/day, day 9", "result": "+47%"},
      {"measurement": "Percent body weight change in days post infection", "setting": "[1]; LD70, orally 200 mg/kg/day, day 11", "result": "+51%"},
      {"measurement": "Percent body weight change in days post infection", "setting": "[1]; LD70, orally 200 mg/kg/day, day 13", "result": "+57%"},
      {"measurement": "Average lifetime (days)", "setting": "[1]; LD70, orally 300 mg/kg/day", "result": "12.8 (1-8 d., 2-9 d.) days"},
      {"measurement": "Percent death protection (%)", "setting": "[1]; LD70, orally 300 mg/kg/day", "result": 40, "unit": "%"},
      {"measurement": "Percent body weight change in days post infection", "setting": "[1]; LD70, orally 300 mg/kg/day, day 1", "result": "+24%"},
      {"measurement": "Percent body weight change in days post infection", "setting": "[1]; LD70, orally 300 mg/kg/day, day 2", "result": "+27%"},
      {"measurement": "Percent body weight change in days post infection", "setting": "[1]; LD70, orally 300 mg/kg/day, day 3", "result": "+28%"},
      {"measurement": "Percent body weight change in days post infection", "setting": "[1]; LD70, orally 300 mg/kg/day, day 4", "result": "+24%"},
      {"measurement": "Percent body weight change in days post infection", "setting": "[1]; LD70, orally 300 mg/kg/day, day 5", "result": "+19%"},
      {"measurement": "Percent body weight change in days post infection", "setting": "[1]; LD70, orally 300 mg/kg/day, day 7", "result": "+23%"},
      {"measurement": "Percent body weight change in days post infection", "setting": "[1]; LD70, orally 300 mg/kg/day, day 9", "result": "+35%"},
      {"measurement": "Percent body weight change in days post infection", "setting": "[1]; LD70, orally 300 mg/kg/day, day 11", "result": "+36%"},
      {"measurement": "Percent body weight change in days post infection", "setting": "[1]; LD70, orally 300 mg/kg/day, day 13", "result": "+38%"},
      {"measurement": "Average lifetime (days)", "setting": "[1]; [3]", "result": "11.4 (2-7 d., 1-8 d., 2-11 d) days"},
      {"measurement": "Percent death protection (%)", "setting": "[1]; [3]", "result": 40, "unit": "%"},
      {"measurement": "Average lifetime (days)", "setting": "[1]; [4]", "result": "13.0 (1-8 d., 1-9 d., 1-11 d.) days"},
      {"measurement": "Percent death protection (%)", "setting": "[1]; [4]", "result": 60, "unit": "%"},
      {"measurement": "Average lifetime (days)", "setting": "[1]; [5]", "result": "13.1 (1-7 d., 2-11 d) days"},
      {"measurement": "Percent death protection (%)", "setting": "[1]; [5]", "result": 60, "unit": "%"},
      {"measurement": "Average lifetime (days)", "setting": "[1]; [6]", "result": "11.5 (2-7 d. D-9 d., 2-11 d.) days"},
      {"measurement": "Percent death protection (%)", "setting": "[1]; [6]", "result": 40, "unit": "%"},
      {"measurement": "Average lifetime (days)", "setting": "[1]; [7]", "result": "10 D3-7 d., 2-8 d., 1-9 d.) days"},
      {"measurement": "Percent death protection (%)", "setting": "[1]; [7]", "result": 30, "unit": "%"},
      {"measurement": "Average lifetime (days)", "setting": "[1]; LD90, orally 100 mg/kg/day", "result": "10.8 (2-7 d., 1-9 d., 2-10 d., 1-11 d) days"},
      {"measurement": "Percent death protection (%)", "setting": "[1]; LD90, orally 100 mg/kg/day", "result": 30, "unit": "%"},
      {"measurement": "Average lifetime (days)", "setting": "[1]; LD90, orally 200 mg/kg/day", "result": "13.4 (1-10 d., 2-11 d) days"},
      {"measurement": "Percent death protection (%)", "setting": "[1]; LD90, orally 200 mg/kg/day", "result": 60, "unit": "%"},
      {"measurement": "increase of lifetime", "setting": "[1]; intramuscular, doses of 100 and 200 mg/kg/day", "result": "twofold"},
      {"measurement": "toxicity for infected mice", "setting": "[1]; intraperitoneal, 200 mg/kg/day", "result": "toxic"},
      {"measurement": "efficiency of intraperitoneal treatment", "setting": "[1]; intraperitoneal, only in doses of 50 and 100 mg/kg/day", "result": "efficient"},
      {"measurement": "Cell survival rate, %", "setting": "[2]; 0.5 mcg/mL", "result": 95, "unit": "%"},
      {"measurement": "Number of cells × 10^3/mL", "setting": "[2]; 0.5 mcg/mL", "result": "833 × 10^3/mL"},
      {"measurement": "Cell survival rate, %", "setting": "[2]; 1.0 mcg/mL", "result": 94, "unit": "%"},
      {"measurement": "Number of cells × 10^3/mL", "setting": "[2]; 1.0 mcg/mL", "result": "833 × 10^3/mL"},
      {"measurement": "Cell survival rate, %", "setting": "[2]; 5.0 mcg/mL", "result": 98, "unit": "%"},
      {"measurement": "Number of cells × 10^3/mL", "setting": "[2]; 5.0 mcg/mL", "result": "799 × 10^3/mL"},
      {"measurement": "Cell survival rate, %", "setting": "[2]; 10.0 mcg/mL", "result": 94, "unit": "%"},
      {"measurement": "Number of cells × 10^3/mL", "setting": "[2]; 10.0 mcg/mL", "result": "767 × 10^3/mL"},
      {"measurement": "Cell survival rate, %", "setting": "[2]; 100 mcg/mL", "result": 95, "unit": "%"},
      {"measurement": "cytotoxic effect on cells", "setting": "[2]; concentrations of 0.5 to 10 mcg/mL", "result": "no cytotoxic effect"}
    ]}
  ]
}
